Each compound was assayed against T1, EZH2 within the PRC2 complex (Homo sapiens, UniProt Q15910) (assay: Assay Protocol 2: EZH2 methyltransferase scintillation proximity assay, biotinylated histone H3 peptide substrate). Conditions: SPA, 3H-SAM, biotinylated unmethylated histone H3K27 peptide substrate, 5-member PRC2 complex.
T1 construct: FLAG; made in house; host or cells: Sf9 cells
Format: biochemical
Method: Compounds contained herein were evaluated for their ability to inhibit the methyltransferase activity of EZH2 within the PRC2 complex. […] The peptides were captured on streptavidin-coated SPA beads and the resulting signal was read on a ViewLux plate reader. • 4. Prepare 10 mM stock of compounds from solid in 100% DMSO. • 5. […] Dispense 10 nL of compound from the dilution plate into reaction plates (Corning, 384-well polystyrene NBS, Cat#3673). Prepare the following solutions: • 7. 1× Base Buffer, 50 mM Tris-HCl, pH 8, 2 mM MgCl2: Per 1 L of base buffer, combine 1 M Tris-HCl, pH 8 (50 mL), 1 M MgCl2 (2 mL), and distilled water (948 mL). • 8. 1× Assay Buffer: Per 10 mL of 1× Assay Buffer, combine 1× Base Buffer (9.96 mL), 1 M DTT (40 uL), and 10% Tween-20 (1 uL) to provide a final concentration of 50 mM Tris-HCl, pH 8, 2 mM MgCl2, 4 mM DTT, 0.001% Tween-20. • 9. 2× Enzyme Solution: […] SPA Bead Solution: Per 1 mL of SPA Bead Solution, combine Streptavidin coated SPA beads (PerkinElmer, Cat# RPNQ0261, 40 mg) and 1× Assay Buffer (1 mL) to provide a working concentration of 40 mg/mL. • 11. 2× Substrate Solution: Per 10 mL of 2× Substrate Solution, combine 40 mg/mL SPA Bead Solution (375 uL), 1 mM biotinylated histone H3K27 peptide (200 uL), 12.5 uM 3H-SAM (240 uL; 1 mCi/mL), 1 mM cold SAM (57 uL), and 1× Assay Buffer (9.13 mL) to provide a final concentration of 0.75 mg/mL SPA Bead Solution, 10 uM biotinylated histone H3K27 peptide, 0.15 uM 3H-SAM (˜12 uCi/mL 3H-SAM), and 2.85 uM cold SAM. • 12. 2.67× Quench Solution: Per 10 mL of 2.67× Quench Solution, combine 1× Assay Buffer (9.73 mL) and 10 mM cold SAM (267 uL) to provide a final concentration of 100 uM cold SAM. • 3. […] Dispense 5 uL/well of 1× Assay Buffer to column 18 (low control reactions). • 11. Dispense 5 uL/well of 2× Substrate Solution to columns 1-24 (note: substrate solution should be mixed to ensure homogeneous bead suspension before dispensing into matrix reservoir). • 12. Dispense 5 uL/well of 2× Enzyme Solution to columns 1-17, 19-24. • 13. Incubate the reaction for 60 min at room temperature. • 5. Dispense 6 uL/well of the 2.67× Quench Solution to columns 1-24. • 6. Seal assay plates and spin for ˜1 min at 500 rpm. • 7. Dark adapt plates in the ViewLux instrument for 15-60 min. • 2. Read the assay plates on the Viewlux Plate Reader utilizing the 613 nm emission filter or clear filter (300 s exposure). Reagent addition can be done manually or with automated liquid handler. Percent inhibition was calculated relative to the DMSO control for each compound concentration and the resulting values were fit using standard IC50 fitting parameters within the ABASE data fitting software package.

T1 sequence (Q15910 whole entry): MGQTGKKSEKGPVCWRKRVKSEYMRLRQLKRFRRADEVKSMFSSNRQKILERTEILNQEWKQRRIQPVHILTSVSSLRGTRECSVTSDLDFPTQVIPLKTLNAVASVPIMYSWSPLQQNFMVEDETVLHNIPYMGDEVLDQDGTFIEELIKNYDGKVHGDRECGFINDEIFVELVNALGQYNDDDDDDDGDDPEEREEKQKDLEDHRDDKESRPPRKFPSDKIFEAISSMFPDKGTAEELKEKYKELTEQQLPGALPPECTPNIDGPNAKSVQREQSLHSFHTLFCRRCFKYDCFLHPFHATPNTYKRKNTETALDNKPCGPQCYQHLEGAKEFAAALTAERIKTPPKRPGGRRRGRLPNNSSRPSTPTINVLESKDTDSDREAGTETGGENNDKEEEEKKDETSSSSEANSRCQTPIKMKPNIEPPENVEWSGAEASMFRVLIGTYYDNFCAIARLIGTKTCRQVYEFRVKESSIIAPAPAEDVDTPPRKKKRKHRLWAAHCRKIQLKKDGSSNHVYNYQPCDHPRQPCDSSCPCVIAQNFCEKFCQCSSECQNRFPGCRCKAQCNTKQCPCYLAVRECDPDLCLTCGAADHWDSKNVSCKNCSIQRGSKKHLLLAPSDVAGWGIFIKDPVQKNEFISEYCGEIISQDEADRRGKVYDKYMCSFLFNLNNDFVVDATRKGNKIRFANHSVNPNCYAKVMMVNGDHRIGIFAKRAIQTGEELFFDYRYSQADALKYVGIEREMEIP
T1 sequence (O75530 whole entry partner): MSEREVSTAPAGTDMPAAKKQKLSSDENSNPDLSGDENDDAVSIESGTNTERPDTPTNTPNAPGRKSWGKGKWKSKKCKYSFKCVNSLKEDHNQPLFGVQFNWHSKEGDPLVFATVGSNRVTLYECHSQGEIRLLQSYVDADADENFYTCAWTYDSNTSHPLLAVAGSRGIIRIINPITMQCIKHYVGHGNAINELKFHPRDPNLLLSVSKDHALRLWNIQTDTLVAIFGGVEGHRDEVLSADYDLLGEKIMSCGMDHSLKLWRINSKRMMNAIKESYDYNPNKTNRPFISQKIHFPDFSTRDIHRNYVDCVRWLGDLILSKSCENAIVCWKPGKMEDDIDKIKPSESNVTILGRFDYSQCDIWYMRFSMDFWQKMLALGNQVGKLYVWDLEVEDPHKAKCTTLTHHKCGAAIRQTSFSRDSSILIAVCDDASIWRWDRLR
T1 sequence (Q15022 whole entry partner): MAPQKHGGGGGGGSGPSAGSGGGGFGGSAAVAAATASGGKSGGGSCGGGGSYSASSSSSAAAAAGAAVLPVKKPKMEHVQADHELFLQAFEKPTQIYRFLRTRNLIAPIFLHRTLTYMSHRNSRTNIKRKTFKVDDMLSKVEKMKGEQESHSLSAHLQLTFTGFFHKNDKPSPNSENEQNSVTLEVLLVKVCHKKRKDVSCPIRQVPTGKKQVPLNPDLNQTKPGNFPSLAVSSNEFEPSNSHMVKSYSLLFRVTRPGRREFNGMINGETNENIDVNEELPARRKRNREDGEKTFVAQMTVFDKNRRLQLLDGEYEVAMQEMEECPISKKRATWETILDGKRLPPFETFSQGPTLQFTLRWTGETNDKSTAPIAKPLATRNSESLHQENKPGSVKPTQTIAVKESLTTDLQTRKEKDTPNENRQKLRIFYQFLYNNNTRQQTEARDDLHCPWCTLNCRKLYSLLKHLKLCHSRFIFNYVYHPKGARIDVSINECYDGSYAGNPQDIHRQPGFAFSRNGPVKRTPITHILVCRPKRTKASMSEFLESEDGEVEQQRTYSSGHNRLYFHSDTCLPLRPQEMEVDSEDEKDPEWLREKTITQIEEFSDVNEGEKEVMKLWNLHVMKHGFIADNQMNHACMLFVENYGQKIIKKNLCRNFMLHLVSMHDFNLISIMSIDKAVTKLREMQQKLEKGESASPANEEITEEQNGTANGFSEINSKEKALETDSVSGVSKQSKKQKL
T1 sequence (Q09028 whole entry partner): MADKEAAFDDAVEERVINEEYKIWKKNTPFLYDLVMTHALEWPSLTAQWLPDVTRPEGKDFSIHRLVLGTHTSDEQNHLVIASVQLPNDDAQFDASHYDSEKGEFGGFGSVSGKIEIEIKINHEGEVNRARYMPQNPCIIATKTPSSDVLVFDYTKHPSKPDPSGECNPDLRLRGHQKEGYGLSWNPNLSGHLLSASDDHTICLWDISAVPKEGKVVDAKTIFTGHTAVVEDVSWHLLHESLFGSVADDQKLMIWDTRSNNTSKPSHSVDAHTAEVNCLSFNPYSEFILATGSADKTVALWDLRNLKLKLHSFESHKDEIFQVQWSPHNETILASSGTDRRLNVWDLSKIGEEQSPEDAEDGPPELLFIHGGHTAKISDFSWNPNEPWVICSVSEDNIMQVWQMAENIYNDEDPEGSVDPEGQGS
T1 sequence (Q6ZN18 whole entry partner): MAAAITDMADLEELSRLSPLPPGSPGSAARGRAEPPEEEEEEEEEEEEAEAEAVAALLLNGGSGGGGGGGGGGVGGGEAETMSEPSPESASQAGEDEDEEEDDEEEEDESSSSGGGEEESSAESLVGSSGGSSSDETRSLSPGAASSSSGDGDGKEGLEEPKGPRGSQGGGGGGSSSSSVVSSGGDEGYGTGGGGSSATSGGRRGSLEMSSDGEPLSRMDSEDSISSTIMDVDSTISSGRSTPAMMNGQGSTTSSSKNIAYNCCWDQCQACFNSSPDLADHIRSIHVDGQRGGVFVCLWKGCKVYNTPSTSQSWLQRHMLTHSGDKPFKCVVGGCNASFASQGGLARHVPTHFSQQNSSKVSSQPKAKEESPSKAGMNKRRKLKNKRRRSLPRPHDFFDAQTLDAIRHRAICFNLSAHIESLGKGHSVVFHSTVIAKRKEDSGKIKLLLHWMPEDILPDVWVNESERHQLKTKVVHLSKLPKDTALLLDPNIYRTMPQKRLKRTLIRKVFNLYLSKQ

SMILES | IC50 [nM]
CCN1CCC(N(CC)c2cccc3c2C/C=C/CCc2cc(C)[nH]c(=O)c2CNC3=O)CC1 [Example 44, (E)-10-(ethyl(1-ethylpiperidin-4-yl)amino)-3-methyl-5,6,15,16-tetrahydrobenzo[c]pyrido[4,3-j][1]azacyclododecine-1,14(2H,9H)-dione] | 79
CCN(c1cccc2c1C/C=C/CCc1cc(C)[nH]c(=O)c1CNC2=O)C1CCN(Cc2ccn(C)n2)CC1 [Example 45] | 50
CCOC(=O)C(C)(C)N1CCC(N(CC)c2cccc3c2C/C=C/CCc2cc(C)[nH]c(=O)c2CNC3=O)CC1 [Example 46, (E)-ethyl 2-(4-(ethyl(3-methyl-1,14-dioxo-1,2,5,6,9,14,15,16-octahydrobenzo[c]pyrido[4,3-j][1]azacyclododecin-10-yl)amino)piperidin-1-yl)-2-methylpropanoate] | 251
CCN(c1cccc2c1C/C=C/CCc1cc(C)[nH]c(=O)c1CNC2=O)C1CCN(CC(F)(F)F)CC1 [Example 47, (E)-10-(ethyl(1-(2,2,2-trifluoroethyl)piperidin-4-yl)amino)-3-methyl-5,6,15,16-tetrahydrobenzo[c]pyrido[4,3-j][1]azacyclododecine-1,14(2H,9H)-dione] | 200
CCN(c1cccc2c1C/C=C/CCc1cc(C)[nH]c(=O)c1CNC2=O)C1CCN(Cc2cccc(C)n2)CC1 [Example 48, (E)-10-(ethyl(1-((6-methylpyridin-2-yl)methyl)piperidin-4-yl)amino)-3-methyl-5,6,15,16-tetrahydrobenzo[c]pyrido[4,3-j][1]azacyclododecine-1,14(2H,9H)-dione] | 316
CCN(CC)[C@H]1CC[C@H](N(CC)c2cccc3c2C/C=C/CCc2cc(C)[nH]c(=O)c2CNC3=O)CC1 [Example 49, (E)-10-((trans-4-(diethylamino)cyclohexyl)(ethyl)amino)-3-methyl-5,6,15,16-tetrahydrobenzo[c]pyrido[4,3-j][1]azacyclododecine-1,14(2H,9H)-dione] | 158
CCN(c1cccc2c1C/C=C/CCc1cc(C)[nH]c(=O)c1CNC2=O)[C@H]1CC[C@H](N2CCOCC2)CC1 [Example 50, (E)-10-(ethyl(trans-4-morpholinocyclohexyl)amino)-3-methyl-5,6,15,16-tetrahydrobenzo[c]pyrido[4,3-j][1]azacyclododecine-1,14(2H,9H)-dione] | 126
CCN(c1cccc2c1C/C=C/CCCc1cc(C)[nH]c(=O)c1CNC2=O)[C@H]1CC[C@H](N(C)C)CC1 [Example 53, (E)-11-((trans-4-(dimethylamino)cyclohexyl)(ethyl)amino)-3-methyl-5,6,7,10,16,17-hexahydro-1H-benzo[c]pyrido[4,3-k][1]azacyclotridecine-1,15(2H)-dione] | 79
CCN(c1cccc2c1C/C=C/CCc1cc(C)[nH]c(=O)c1CNC2=O)[C@H]1CC[C@@H](N(C)C)CC1 [Example 55, (E)-10-((cis-4-(dimethylamino)cyclohexyl)(ethyl)amino)-3-methyl-5,6,15,16-tetrahydrobenzo[c]pyrido[4,3-j][1]azacyclododecine-1,14(2H,9H)-dione] | 251
CCN(c1cccc2c1C/C=C/CCc1cc(C)[nH]c(=O)c1CNC2=O)[C@H]1CC[C@H](NCC(F)F)CC1 [Example 56, (E)-10-((trans-4-((2,2-difluoroethyl)amino)cyclohexyl)(ethyl)amino)-3-methyl-5,6,15,16-tetrahydrobenzo[c]pyrido[4,3-j][1]azacyclododecine-1,14(2H,9H)-dione] | 126
CCN(c1cccc2c1C/C=C/CCc1cc(C)[nH]c(=O)c1CNC2=O)[C@H]1CC[C@H](N(C)CC(F)F)CC1 [Example 57, (E)-10-((trans-4-((2,2-difluoroethyl)(methyl)amino)cyclohexyl)(ethyl)amino)-3-methyl-5,6,15,16-tetrahydrobenzo[c]pyrido[4,3-j][1]azacyclododecine-1,14(2H,9H)-dione] | 100
CCN(c1cccc2c1C/C=C/CCc1cc(C)[nH]c(=O)c1CNC2=O)[C@H]1CC[C@H](NCC(F)(F)F)CC1 [Example 58, (E)-10-(ethyl(trans-4-((2,2,2-trifluoroethyl)amino)cyclohexyl)amino)-3-methyl-5,6,15,16-tetrahydrobenzo[c]pyrido[4,3-j][1]azacyclododecine-1,14(2H,9H)-dione] | 158
CCN(c1cccc2c1C/C=C/CCc1cc(C)[nH]c(=O)c1CNC2=O)[C@H]1CC[C@H](N(C)CC(F)(F)F)CC1 [Example 59, (E)-10-(ethyl(trans-4-(methyl(2,2,2-trifluoroethyl)amino)cyclohexyl)amino)-3-methyl-5,6,15,16-tetrahydrobenzo[c]pyrido[4,3-j][1]azacyclododecine-1,14(2H,9H)-dione] | 316
CCN(c1cccc2c1C/C=C/CCc1cc(C)[nH]c(=O)c1CNC2=O)[C@H]1CC[C@H](N2CCC2)CC1 [Example 60, (E)-10-((trans-4-(azetidin-1-yl)cyclohexyl)(ethyl)amino)-3-methyl-5,6,15,16-tetrahydrobenzo[c]pyrido[4,3-j][1]azacyclododecine-1,14(2H,9H)-dione] | 1260
CCN(c1cccc2c1C/C=C\Cc1cc(C)[nH]c(=O)c1CNC2=O)[C@H]1CC[C@H](N(C)C)CC1 [Example 61, (Z)-9-((trans-4-(dimethylamino)cyclohexyl)(ethyl)amino)-3-methyl-5,8,14,15-tetrahydro-1H-benzo[c]pyrido[4,3-i][1]azacycloundecine-1,13(2H)-dione] | 158
CCN(c1cccc2c1CCCCc1cc(C)[nH]c(=O)c1CNC2=O)[C@H]1CC[C@H](N(C)C)CC1 [Example 62, 9-((trans-4-(dimethylamino)cyclohexyl)(ethyl)amino)-3-methyl-5,6,7,8,14,15-hexahydro-1H-benzo[c]pyrido[4,3-i][1]azacycloundecine-1,13(2H)-dione] | 251
CCN(c1nccc2c1C/C=C/CCc1cc(C)[nH]c(=O)c1CNC2=O)C1CCOCC1 [Example 63, (E)-10-(ethyl(tetrahydro-2H-pyran-4-yl)amino)-3-methyl-5,6,15,16-tetrahydrodipyrido[3,4-c:3′,4′-j][1]azacyclododecine-1,14(2H,9H)-dione] | 251
Cc1cc2c(c(=O)[nH]1)CNC(=O)c1cccc(N(CCO)C3CCOCC3)c1C/C=C/CC2 [Example 64, (E)-10-((2-hydroxyethyl)(tetrahydro-2H-pyran-4-yl)amino)-3-methyl-5,6,15,16-tetrahydrobenzo[c]pyrido[4,3-j][1]azacyclododecine-1,14(2H,9H)-dione] | 251
CCN(c1cccc2c1C/C=C/CCc1cc(C)[nH]c(=O)c1CNC2=O)C1CCN(N(C)C)CC1 [Example 65, (E)-10-((1-(dimethylamino)piperidin-4-yl)(ethyl)amino)-3-methyl-5,6,15,16-tetrahydrobenzo[c]pyrido[4,3-j][1]azacyclododecine-1,14(2H,9H)-dione] | 316
CCN(c1cccc2c1C/C=C/CCc1cc(C)[nH]c(=O)c1CNC2=O)C1CCC2(CC1)CNC2 [Example 66, (E)-10-(ethyl(2-azaspiro[3.5]nonan-7-yl)amino)-3-methyl-5,6,15,16-tetrahydrobenzo[c]pyrido[4,3-j][1]azacyclododecine-1,14(2H,9H)-dione] | 251
